Experimental data published in patent US7247317B2, “Compositions comprising phenylaminothiophenacetic acid derivatives for the treatment of acute or adult respiratory distress syndrome (ARDS) and infant respiratory distress syndrome (IRDS)” (Altana Pharma AG, priority 1998, dated 2007).

Tested on: Sprague Dawley rats
Assay: Lung lavage model of ARDS in ventilated rats: arterial oxygen partial pressure (PaO2)
Type: in vivo, rat
Details: for PaO2: 120 min, mean ± SD
Text: Anesthetized Sprague Dawley rats are artificially ventilated with pure oxygen and a positive endexiratory pressure (PEEP; in order to ensure oxygenation of the rats) and lavaged until their endogenous lung surfactant is washed out [D. Häfner, R. Beume, U. Kilian, G. Kraznai and Burkhard Lachmann: Dose-response comparison of five lung surfactant (LSF) preparations in an animal model of adult respiratory distress syndrome (ARDS); D. Häfner, P.-G. Germann, D. Hauschke, Pulmonary Pharmacology (1994) 7, 319-332]. This is manifested by the fact that in the animals the preliminary values of the arterial oxygen partial pressure (PaO2) of 500-550 mmHg (in the case of pure oxygen ventilation and PEEP) decrease to values of 50-110 mmHg. Animals of the control group which are not treated with lung surfactant remain with their PaO2 at these low values throughout the observation period. 60 minutes after the PaO2 has decreased to these values, lung surfactant or lung surfactant together with 4-(2,6-dichloroanilino)-3-thiopheneacetic acid is instilled intratracheally. The blood gases are determined 30, 60, 90 and 120 minutes after instillation.
In Table 1 below, in line A the average values (± standard deviation) of the PaO2 are indicated in mmHg for the time 120 minutes (constant PEEP of 8 cm H2O) after intratracheal instillation of lung surfactant 1 h after the last lavage. The table contains data about the values after a sole i.v. administration of 4-(2,6-dichloroanilino)-3-thiopheneacetic acid (Eltenac) in comparison to untreated controls. It can be seen from the table that the sole administration of Eltenac has no influence on the PaO2. This follows by comparison with the untreated control animals. The administration of lung surfactant (25 or 100 mg/kg) leads to a rise in the PaO2. […] In Table 2, in line A the PaO2 values after joint intratracheal (i.tr.) administration of lung surfactant together with Eltenac are indicated in increasing dosages. […]

O=C(O)Cc1cscc1Nc1c(Cl)cccc1Cl [Eltenac, 4-(2,6-dichloroanilino)-3-thiopheneacetic acid]
PaO2 (Eltenac i.tr. 3.0 mg/kg alone after last lavage): 92 ± 69 mmHg
PaO2 (Eltenac i.v. 22.1 mg/kg alone, directly after lavage, PEEP 8 cm H2O): 82 ± 35 mmHg
influence on the PaO2 (in words) (sole administration of Eltenac vs untreated control animals): no influence
